The text below walks through data of US11141391B2, “Biomarkers for risk assessment, diagnosis and target microbiome and intestinal homeostasis for prevention and treatment of amyotrophic lateral sclerosis” (Rush University Medical Center, priority 2014, dated 2021).

Each structure is given as a SMILES string. “Also recorded” adds a separate entry of the source.

One experiment concerns ALS patients. Particulars: cited from earlier work.
The test system of experiment [1] is G93A amyotrophic lateral sclerosis model mice. Put plainly: Butyrate treated mice model: oral sodium butyrate in drinking water, body weight and survival. The class given is in vivo, mouse. An excerpt:
Nine G93A mice were divided into a […] (n=4) and a butyrate group (n=5). Butyrate mice started to drink 2% sodium butyrate in the drinking water bottle from age 63 days, without treatment mice drank regular water mice. Without treatment mice died on day 127, 133, 143, 155 separately.
Mice were divided into control and butyrate group. Butyrate group mice were given 2% sodium butyrate (Sigma, St. Louis, Mo.) water ad libitum from age 63 days. The untreated control group was maintained on tap water throughout the experiment. Without treatment mice died on day 127, 133, 143, 155 separately.

As to `Nc1nc2ccc(OC(F)(F)F)cc2s1` [Riluzole], the patient life span result in the experiment on ALS patients (FDA approved treatment) is “extends patient life span for only a few months”. For the same compound, the relief of symptoms entry in the experiment on ALS patients was “does not relieve symptoms”.
Take `CCCC(=O)[O-].[Na+]` [sodium butyrate]: in experiment [1] (2% sodium butyrate in drinking water ad libitum from age 63 days, n=5, vs untreated G93A mice n=4 (FIG. 4A)), the body weight loss result is “prevents body weight loss”. Also, the “additional survival time of butyrate mice” value in experiment [1] (2% sodium butyrate in drinking water from age 63 days, relative to untreated mice that died on day 127-155) is given as “survived at least one additional month or longer”. The survival entry in experiment [1] (2% sodium butyrate in drinking water from age 63 days, untreated mice died on day 127, 133, 143, 155 (FIG. 4B)) is listed as “extends survival time; also recorded: All the butyrate mice survived”.
